Experimental data reported in ChEMBL document CHEMBL3045943, “Novel N-aryl(alkaryl)-2-[(3-R-2-oxo-2H-[1,2,4]triazino[2,3-c]quinazoline-6-yl)thio]acetamides: synthesis, cytotoxicity, anticancer activity, COMPARE analysis and docking” (2013).

Key:
Assay type in all cases: functional
[1] = system: IGROV-1; test: Cytotoxicity against Homo sapiens (human) IGROV1 cells assessed as cell growth at 10 uM after 48 hr by SRB assay relative to control; details: IGROV-1, 48 h, read-out: Activity
[2] = system: Photobacterium leiognathi; test: Growth inhibition of Photobacterium leiognathi Sh1 assessed as bio-luminescence at 0.25 mg/ml after 16 to 18 hr by chronic action test relative to control; parameters: scale not given: the % may be the effect or the level left
[3] = system: SW-620; test: Cytotoxicity against Homo sapiens (human) SW620 cells assessed as cell growth at 10 uM after 48 hr by SRB assay relative to control; details: SW-620, 48 h, read-out: Activity
[4] = system: MDA-MB-435; test: Cytotoxicity against Homo sapiens (human) MDA-MB-435 cells assessed as cell growth at 10 uM after 48 hr by SRB assay relative to control; details: MDA-MB-435, 48 h, read-out: Activity
[5] = system: SF-295; test: Cytotoxicity against Homo sapiens (human) SF295 cells assessed as cell growth at 10 uM after 48 hr by SRB assay relative to control; details: SF-295, 48 h, read-out: Activity
[6] = system: LOX IMVI; test: Cytotoxicity against Homo sapiens (human) LOXIMVI cells assessed as cell growth at 10 uM after 48 hr by SRB assay relative to control; details: read-out: Activity
[7] = system: Photobacterium leiognathi; test: Growth inhibition of Photobacterium leiognathi Sh1 assessed as bio-luminescence at 0.025 mg/ml after 10 min by acute action test relative to control; parameters: scale not given: the % may be the effect or the level left
[8] = system: HOP-62; test: Cytotoxicity against Homo sapiens (human) HOP62 cells after 48 hr by SRB assay; details: HOP-62, 48 h; for TGI: read-out: pTGI (converted)
[9] = system: UO-31; test: Cytotoxicity against Homo sapiens (human) UO31 cells assessed as cell growth at 10 uM after 48 hr by SRB assay relative to control; details: UO-31, 48 h, read-out: Activity
[10] = system: SF-268; test: Cytotoxicity against Homo sapiens (human) SF268 cells assessed as cell growth at 10 uM after 48 hr by SRB assay relative to control; details: SF-268, 48 h, read-out: Activity
[11] = system: KM12; test: Cytotoxicity against Homo sapiens (human) KM12 cells assessed as cell growth at 10 uM after 48 hr by SRB assay relative to control; details: KM12, 48 h, read-out: Activity
[12] = system: Photobacterium leiognathi; test: Growth inhibition of Photobacterium leiognathi Sh1 assessed as bio-luminescence at 0.1 mg/ml after 16 to 18 hr by chronic action test relative to control; parameters: scale not given: the % may be the effect or the level left
[13] = system: HL-60(TB); test: Cytotoxicity against Homo sapiens (human) HL-60(TB) cells assessed as cell growth at 10 uM after 48 hr by SRB assay relative to control; details: HL-60, 48 h, read-out: Activity
[14] = system: OVCAR-3; test: Cytotoxicity against Homo sapiens (human) OVCAR3 cells assessed as cell growth at 10 uM after 48 hr by SRB assay relative to control; details: OVCAR-3, 48 h, read-out: Activity
[15] = system: IGROV-1; test: Cytotoxicity against Homo sapiens (human) IGROV1 cells after 48 hr by SRB assay; details: IGROV-1, 48 h
[16] = system: Hs-578T; test: Cytotoxicity against Homo sapiens (human) Hs 578T cells after 48 hr by SRB assay; details: for TGI: read-out: pTGI (converted)
[17] = system: RXF 393; test: Cytotoxicity against Homo sapiens (human) RXF393 cells after 48 hr by SRB assay; details: RXF 393, 48 h; for TGI: read-out: pTGI (converted)
[18] = system: 786-0; test: Cytotoxicity against Homo sapiens (human) 786-0 cells assessed as cell growth at 10 uM after 48 hr by SRB assay relative to control; details: 786-0, 48 h, read-out: Activity
[19] = system: CAKI-1; test: Cytotoxicity against Homo sapiens (human) Caki1 cells assessed as cell growth at 10 uM after 48 hr by SRB assay relative to control; details: CAKI-1, 48 h, read-out: Activity
[20] = system: EKVX; test: Cytotoxicity against Homo sapiens (human) EKVX cells assessed as cell growth at 10 uM after 48 hr by SRB assay relative to control; details: read-out: Activity
[21] = system: NCI-H460; test: Cytotoxicity against Homo sapiens (human) NCI-H460 cells assessed as cell growth at 10 uM after 48 hr by SRB assay relative to control; details: NCI-H460, 48 h, read-out: Activity
[22] = system: Photobacterium leiognathi; test: Growth inhibition of Photobacterium leiognathi Sh1 assessed as bio-luminescence at 0.1 mg/ml after 10 min by acute action test relative to control; parameters: scale not given: the % may be the effect or the level left
[23] = system: SNB-75; test: Cytotoxicity against Homo sapiens (human) SNB75 cells after 48 hr by SRB assay; details: SNB-75, 48 h; for TGI: read-out: pTGI (converted)
[24] = system: K562; test: Cytotoxicity against Homo sapiens (human) K562 cells assessed as cell growth at 10 uM after 48 hr by SRB assay relative to control; details: K562, 48 h, read-out: Activity
[25] = system: A549; test: Cytotoxicity against Homo sapiens (human) A549 cells assessed as cell growth at 10 uM after 48 hr by SRB assay relative to control; details: A549, 48 h, read-out: Activity
[26] = system: SF-539; test: Cytotoxicity against Homo sapiens (human) SF539 cells after 48 hr by SRB assay; details: SF-539, 48 h
[27] = system: DU-145; test: Cytotoxicity against Homo sapiens (human) DU145 cells assessed as cell growth at 10 uM after 48 hr by SRB assay relative to control; details: DU-145, 48 h, read-out: Activity
[28] = system: SR; test: Cytotoxicity against Homo sapiens (human) SR cells assessed as cell growth at 10 uM after 48 hr by SRB assay relative to control; details: read-out: Activity
[29] = system: Photobacterium leiognathi; test: Growth inhibition of Photobacterium leiognathi Sh1 assessed as bio-luminescence at 0.25 mg/ml after 10 min by acute action test relative to control; parameters: scale not given: the % may be the effect or the level left
[30] = system: MOLT-4; test: Cytotoxicity against Homo sapiens (human) MOLT4 cells assessed as cell growth at 10 uM after 48 hr by SRB assay relative to control; details: MOLT-4, 48 h, read-out: Activity
[31] = system: Photobacterium leiognathi; test: Growth inhibition of Photobacterium leiognathi Sh1 assessed as bio-luminescence at 0.025 mg/ml after 16 to 18 hr by chronic action test relative to control; parameters: scale not given: the % may be the effect or the level left
[32] = system: HCT-116; test: Cytotoxicity against Homo sapiens (human) HCT116 cells assessed as cell growth at 10 uM after 48 hr by SRB assay relative to control; details: HCT-116, 48 h, read-out: Activity
[33] = system: U-251; test: Cytotoxicity against Homo sapiens (human) U251 cells after 48 hr by SRB assay; details: U-251, 48 h
[34] = read-out: pLC50 (the source's name) (converted)

SMILES: COc1ccccc1CNC(=O)CSc1nc2ccccc2c2nc(=O)c(-c3ccccc3)nn12
- growth at 10 µM [1]: 18.8%
- Activity [2]: 73.3%
- growth at 10 µM [3]: 30.2%
- growth at 10 µM [4]: 27.7%
- growth at 10 µM [5]: 18.8%
- growth at 10 µM [6]: 27.7%
- Activity [7]: 111.5%
- GI50 [8]: 2.34 µM
- LC50 [8]: 19.5 µM
- TGI [8]: 5.5 µM
- growth at 10 µM [9]: 43.8%
- growth at 10 µM [10]: 43.5%
- growth at 10 µM [11]: 43.3%
- Activity [12]: 80%
- growth at 10 µM [13]: 41.9%
- growth at 10 µM [14]: 21.3%
- GI50 [15]: 3.02 µM
- CC50 [15, 34]: > 100 µM
- TGI ([15]; read-out: pTGI): > 100 µM
- GI50 [16]: 3.09 µM
- LC50 [16]: > 100 µM
- TGI [16]: 9.12 µM
- GI50 [17]: 1.78 µM
- LC50 [17]: > 100 µM
- TGI [17]: > 100 µM
- growth at 10 µM [18]: 35.3%
- growth at 10 µM [19]: -13.6%
- growth at 10 µM [20]: 31.4%
- growth at 10 µM [21]: 8.38%
- Activity [22]: 99.1%
- GI50 [23]: 2.24 µM
- LC50 [23]: 43.7 µM
- TGI [23]: 6.61 µM
- growth at 10 µM [24]: 26.4%
- growth at 10 µM [25]: 39.7%
- GI50 [26]: 1.82 µM
- CC50 [26, 34]: > 100 µM
- TGI ([26]; read-out: pTGI): > 100 µM
- growth at 10 µM [27]: 0.48%
- growth at 10 µM [28]: 42.1%
- Activity [29]: 122.6%
- growth at 10 µM [30]: 52.3%
- Activity [31]: 150%
- growth at 10 µM [32]: 33.1%

SMILES: COc1ccc(-c2nn3c(SCC(=O)Nc4ccccc4Cl)nc4ccccc4c3nc2=O)cc1
- growth at 10 µM [1]: 38.4%
- Activity [2]: 33.3%
- growth at 10 µM [3]: 13.9%
- growth at 10 µM [4]: 15.7%
- growth at 10 µM [5]: 23.9%
- growth at 10 µM [6]: 42.1%
- Activity [7]: 83.3%
- GI50 [8]: 2.88 µM
- LC50 [8]: 35.5 µM
- TGI [8]: 9.77 µM
- growth at 10 µM [10]: 53.9%
- growth at 10 µM [11]: 34.8%
- Activity [12]: 35.4%
- growth at 10 µM [13]: 38.6%
- growth at 10 µM [14]: 7.18%
- GI50 [16]: 1.95 µM
- LC50 [16]: > 100 µM
- TGI [16]: 6.76 µM
- GI50 [17]: 2.63 µM
- LC50 [17]: 39.8 µM
- TGI [17]: 7.76 µM
- growth at 10 µM [18]: 32.9%
- growth at 10 µM [19]: 54.7%
- growth at 10 µM [20]: 27.2%
- growth at 10 µM [21]: 24.1%
- Activity [22]: 87.5%
- GI50 [23]: 2 µM
- LC50 [23]: 25.1 µM
- TGI [23]: 6.03 µM
- growth at 10 µM [24]: 26.9%
- growth at 10 µM [25]: -29.6%
- GI50 [33]: 1.78 µM
- LC50 [33]: 18.6 µM
- TGI ([33]; read-out: pTGI (converted)): 4.68 µM
- growth at 10 µM [27]: -17.9%
- growth at 10 µM [28]: 37%
- Activity [29]: 75%
- growth at 10 µM [30]: 36.3%
- Activity [31]: 54.5%
- growth at 10 µM [32]: 12.2%
